Data: PubChem BioAssay (NCI)
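Five compound concentrations were applied to cells in 96-well plates for 48 hours; endpoints were derived by simple linear interpolation of the resulting dose-response curve. GI50 marks 50% less growth. TGI: concentration producing complete growth inhibition.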

Key:
Assay in all cases: inhibition of tumour cell growth, NCI panel, 48 h
786-0 renal = test system: 786-0 renal
A498 renal = test system: A498 renal
A549 NSCLC = test system: A549 NSCLC
ACHN renal = test system: ACHN renal
CAKI-1 renal = test system: CAKI-1 renal
COLO 205 colon = test system: COLO 205 colon
DU-145 prostate = test system: DU-145 prostate
EKVX NSCLC = test system: EKVX NSCLC
HCC-2998 colon = test system: HCC-2998 colon
HCT-116 colon = test system: HCT-116 colon
HCT-15 colon = test system: HCT-15 colon
HL-60(TB) leukemia = test system: HL-60(TB) leukemia
HOP-62 NSCLC = test system: HOP-62 NSCLC
HS 578T breast = test system: HS 578T breast
HT29 colon = test system: HT29 colon
IGROV1 ovarian = test system: IGROV1 ovarian
K-562 leukemia = test system: K-562 leukemia
KM12 colon = test system: KM12 colon
LOX IMVI melanoma = test system: LOX IMVI melanoma
M14 melanoma = test system: M14 melanoma
MALME-3M melanoma = test system: MALME-3M melanoma
MCF7 breast = test system: MCF7 breast
MDA-MB-231 breast = test system: MDA-MB-231 breast
MDA-MB-435 = test system: MDA-MB-435
MOLT-4 leukemia = test system: MOLT-4 leukemia
NCI-H226 lung = test system: NCI-H226 lung
NCI-H23 lung = test system: NCI-H23 lung
NCI-H460 lung = test system: NCI-H460 lung
NCI-H522 lung = test system: NCI-H522 lung
NCI/ADR-RES ovarian = test system: NCI/ADR-RES ovarian
OVCAR-3 ovarian = test system: OVCAR-3 ovarian
OVCAR-4 ovarian = test system: OVCAR-4 ovarian
OVCAR-5 ovarian = test system: OVCAR-5 ovarian
OVCAR-8 ovarian = test system: OVCAR-8 ovarian
PC-3 prostate = test system: PC-3 prostate
RPMI-8226 leukemia = test system: RPMI-8226 leukemia
RXF 393 renal = test system: RXF 393 renal
SF-268 CNS = test system: SF-268 CNS
SF-295 CNS = test system: SF-295 CNS
SF-539 CNS = test system: SF-539 CNS
SK-MEL-28 melanoma = test system: SK-MEL-28 melanoma
SK-MEL-5 melanoma = test system: SK-MEL-5 melanoma
SK-OV-3 ovarian = test system: SK-OV-3 ovarian
SN12C renal = test system: SN12C renal
SNB-19 CNS = test system: SNB-19 CNS
SNB-75 CNS = test system: SNB-75 CNS
SR leukemia = test system: SR leukemia
SW-620 colon = test system: SW-620 colon
T-47D breast = test system: T-47D breast
TK-10 renal = test system: TK-10 renal
U251 CNS = test system: U251 CNS
UACC-257 melanoma = test system: UACC-257 melanoma
UACC-62 melanoma = test system: UACC-62 melanoma
UO-31 renal = test system: UO-31 renal
BT-549 breast = test system: BT-549 breast
SK-MEL-2 melanoma = test system: SK-MEL-2 melanoma
HOP-92 NSCLC = test system: HOP-92 NSCLC

SMILES: Nc1ncnc2c1N=C(c1ccc3c(c1)OCO3)CC(c1ccc(Cl)cc1)N2 (stereo not given)
- GI50 (786-0 renal): 21.7 µM
- TGI (786-0 renal): > 100 µM
- GI50 (A498 renal): 5.93 µM
- TGI (A498 renal): > 100 µM
- GI50 (A549 NSCLC): 11.6 µM
- TGI (A549 NSCLC): 30.1 µM
- GI50 (ACHN renal): 8.25 µM
- TGI (ACHN renal): > 100 µM
- GI50 (CAKI-1 renal): 22.7 µM
- TGI (CAKI-1 renal): 86.3 µM
- GI50 (COLO 205 colon): 15 µM
- TGI (COLO 205 colon): > 100 µM
- GI50 (DU-145 prostate): 16.8 µM
- TGI (DU-145 prostate): 33.3 µM
- GI50 (EKVX NSCLC): 40.6 µM
- TGI (EKVX NSCLC): > 100 µM
- GI50 (HCC-2998 colon): 5.88 µM
- TGI (HCC-2998 colon): 35 µM
- GI50 (HCT-116 colon): 10.7 µM
- TGI (HCT-116 colon): 22.5 µM
- GI50 (HCT-15 colon): 3.05 µM
- TGI (HCT-15 colon): > 100 µM
- GI50 (HL-60(TB) leukemia): 5.38 µM
- TGI (HL-60(TB) leukemia): > 100 µM
- GI50 (HOP-62 NSCLC): 16.6 µM
- TGI (HOP-62 NSCLC): 42.6 µM
- GI50 (HS 578T breast): 1.07 µM
- TGI (HS 578T breast): 7.09 µM
- GI50 (HT29 colon): 17.2 µM
- TGI (HT29 colon): > 100 µM
- GI50 (IGROV1 ovarian): 0.351 µM
- TGI (IGROV1 ovarian): 3.76 µM
- GI50 (K-562 leukemia): 4.27 µM
- TGI (K-562 leukemia): > 100 µM
- GI50 (KM12 colon): 2.03 µM
- TGI (KM12 colon): 30.7 µM
- GI50 (LOX IMVI melanoma): 10.1 µM
- TGI (LOX IMVI melanoma): 33 µM
- GI50 (M14 melanoma): 25.5 µM
- TGI (M14 melanoma): > 100 µM
- GI50 (MALME-3M melanoma): 89.1 µM
- TGI (MALME-3M melanoma): > 100 µM
- GI50 (MCF7 breast): 3.61 µM
- TGI (MCF7 breast): 45.5 µM
- GI50 (MDA-MB-231 breast): 27 µM
- TGI (MDA-MB-231 breast): > 100 µM
- GI50 (MDA-MB-435): 56.3 µM
- TGI (MDA-MB-435): > 100 µM
- GI50 (MOLT-4 leukemia): 5.85 µM
- TGI (MOLT-4 leukemia): > 100 µM
- GI50 (NCI-H226 lung): 44.8 µM
- TGI (NCI-H226 lung): > 100 µM
- GI50 (NCI-H23 lung): 21.4 µM
- TGI (NCI-H23 lung): > 100 µM
- GI50 (NCI-H460 lung): 21.8 µM
- TGI (NCI-H460 lung): > 100 µM
- GI50 (NCI-H522 lung): 2.37 µM
- TGI (NCI-H522 lung): > 100 µM
- GI50 (NCI/ADR-RES ovarian): 5.35 µM
- TGI (NCI/ADR-RES ovarian): 41.2 µM
- GI50 (OVCAR-3 ovarian): 3.71 µM
- TGI (OVCAR-3 ovarian): 18.6 µM
- GI50 (OVCAR-4 ovarian): 4.58 µM
- TGI (OVCAR-4 ovarian): 35.2 µM
- GI50 (OVCAR-5 ovarian): 18.3 µM
- TGI (OVCAR-5 ovarian): 90.7 µM
- GI50 (OVCAR-8 ovarian): 4.66 µM
- TGI (OVCAR-8 ovarian): 25.1 µM
- GI50 (PC-3 prostate): 9.06 µM
- TGI (PC-3 prostate): 22.1 µM
- GI50 (RPMI-8226 leukemia): 1.5 µM
- TGI (RPMI-8226 leukemia): 8.33 µM
- GI50 (RXF 393 renal): 2.51 µM
- TGI (RXF 393 renal): 13.5 µM
- GI50 (SF-268 CNS): 8.52 µM
- TGI (SF-268 CNS): 45.9 µM
- GI50 (SF-295 CNS): 14.7 µM
- TGI (SF-295 CNS): > 100 µM
- GI50 (SF-539 CNS): 26.2 µM
- TGI (SF-539 CNS): > 100 µM
- GI50 (SK-MEL-28 melanoma): 30.4 µM
- TGI (SK-MEL-28 melanoma): > 100 µM
- GI50 (SK-MEL-5 melanoma): 85.1 µM
- TGI (SK-MEL-5 melanoma): > 100 µM
- GI50 (SK-OV-3 ovarian): 92.6 µM
- TGI (SK-OV-3 ovarian): > 100 µM
- GI50 (SN12C renal): 80.4 µM
- TGI (SN12C renal): > 100 µM
- GI50 (SNB-19 CNS): > 100 µM
- TGI (SNB-19 CNS): > 100 µM
- GI50 (SNB-75 CNS): 5.22 µM
- TGI (SNB-75 CNS): 38.3 µM
- GI50 (SR leukemia): > 100 µM
- TGI (SR leukemia): > 100 µM
- GI50 (SW-620 colon): 4.91 µM
- TGI (SW-620 colon): > 100 µM
- GI50 (T-47D breast): 20.9 µM
- TGI (T-47D breast): > 100 µM
- GI50 (TK-10 renal): 8.22 µM
- TGI (TK-10 renal): 38.9 µM
- GI50 (U251 CNS): 6.19 µM
- TGI (U251 CNS): 25.8 µM
- GI50 (UACC-257 melanoma): > 100 µM
- TGI (UACC-257 melanoma): > 100 µM
- GI50 (UACC-62 melanoma): 72.1 µM
- TGI (UACC-62 melanoma): > 100 µM
- GI50 (UO-31 renal): 7.47 µM
- TGI (UO-31 renal): > 100 µM

SMILES: COc1cc(/C=C2\C[C@H]3[C@@H]4CCc5cc(OCCN6CCCC6)ccc5[C@H]4CC[C@]3(C)C2=O)cc(OC)c1OC
- TGI (BT-549 breast): > 100 µM
- TGI (COLO 205 colon): 2.81 µM
- TGI (DU-145 prostate): 3.56 µM
- TGI (HCT-15 colon): 3.77 µM
- TGI (KM12 colon): 3.36 µM
- TGI (NCI-H23 lung): 7.4 µM
- TGI (SK-MEL-2 melanoma): 5.34 µM
- TGI (SK-MEL-5 melanoma): 2.86 µM
- TGI (SK-OV-3 ovarian): 8.3 µM
- TGI (UACC-257 melanoma): 4.89 µM
- TGI (UACC-62 melanoma): 7.22 µM

SMILES: O=C(Nc1ccc(N=C=S)cc1Cl)c1cc(Br)cc(Br)c1O
- TGI (786-0 renal): 75.2 µM
- TGI (A549 NSCLC): 69.7 µM
- TGI (ACHN renal): 83.8 µM
- TGI (CAKI-1 renal): > 100 µM
- TGI (COLO 205 colon): > 100 µM
- TGI (DU-145 prostate): 39.4 µM
- TGI (HCT-116 colon): 31.7 µM
- TGI (HCT-15 colon): 31.3 µM
- TGI (HL-60(TB) leukemia): > 100 µM
- TGI (HOP-62 NSCLC): 84.4 µM
- TGI (HOP-92 NSCLC): 56 µM
- TGI (HS 578T breast): 69.4 µM
- TGI (HT29 colon): 38 µM
- TGI (IGROV1 ovarian): 39.8 µM
- TGI (K-562 leukemia): 97.1 µM
- TGI (KM12 colon): 55.3 µM
- TGI (M14 melanoma): > 100 µM
- TGI (MALME-3M melanoma): > 100 µM
- TGI (MCF7 breast): > 100 µM
- TGI (MDA-MB-231 breast): 46.2 µM
- TGI (MDA-MB-435): 71.4 µM
- TGI (MOLT-4 leukemia): 69.4 µM
- TGI (NCI-H226 lung): 41.5 µM
- TGI (NCI-H23 lung): 55.2 µM
- TGI (NCI-H460 lung): > 100 µM
- TGI (NCI-H522 lung): > 100 µM
- TGI (NCI/ADR-RES ovarian): 58 µM
- TGI (OVCAR-3 ovarian): > 100 µM
- TGI (OVCAR-4 ovarian): > 100 µM
- TGI (OVCAR-5 ovarian): 50.9 µM
- TGI (OVCAR-8 ovarian): 46.6 µM
- TGI (PC-3 prostate): 54.5 µM
- TGI (RXF 393 renal): > 100 µM
- TGI (SF-268 CNS): > 100 µM
- TGI (SF-295 CNS): > 100 µM
- TGI (SF-539 CNS): 54.6 µM
- TGI (SK-MEL-2 melanoma): > 100 µM
- TGI (SK-MEL-28 melanoma): > 100 µM
- TGI (SK-MEL-5 melanoma): 46.5 µM
- TGI (SK-OV-3 ovarian): > 100 µM
- TGI (SN12C renal): 24.1 µM
- TGI (SNB-19 CNS): 64.3 µM
- TGI (SNB-75 CNS): > 100 µM
- TGI (SR leukemia): 62 µM
- TGI (SW-620 colon): 72.3 µM
- TGI (T-47D breast): > 100 µM
- TGI (TK-10 renal): 69.5 µM
- TGI (U251 CNS): 53.1 µM
- TGI (UACC-257 melanoma): 48.9 µM
- TGI (UACC-62 melanoma): 35.2 µM
- TGI (UO-31 renal): > 100 µM
